Test results as given in patent publication US12594276B2, “Inhibitors of human immunodeficiency virus replication” (ViiV Healthcare UK (No.5) Limited, priority 2024, dated 2026).
Like-named read-outs stand apart in the source and are kept apart here.

Legend:
[1] = system: recombinant NL4-3 virus (nef section replaced with Renilla luciferase gene) in MT-2 cells; experiment: HIV cell culture assay (antiviral activity, luciferase readout); type: cell-based; details: Renilla, NL43, MT-2 cells infected for 4-5 days with recombinant NL4-3 Renilla luciferase virus
Summary of the method: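 The reporter virus was produced by transfecting 293T cells with the NL4-3 nef/Renilla luciferase proviral clone. MT-2 cells were infected for 4–5 days with serial compound dilutions present. Luciferase was read with a live-cell substrate, and EC50 came from the exponential median-effect equation.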

[2] = Compound cytotoxicity, XTT-based colorimetric assay; type: cell-based; details: human
Summary of the method: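 Cells seeded as for the antiviral assay but left uninfected (MT2). Compound exposure continued to day 4. XTT reagent added and colour read. CC50 calculated.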

[3] = uninfected MT2 cells, day 4, XTT, read-out: CC50

Structure (SMILES): CS(=O)(=O)Nc1nn(CCN2C[C@H]3CC[C@@H](C2)O3)c2c(-n3c([C@H](Cc4cc(F)cc(F)c4)NC(=O)Cn4nc(C5CC5)c5c4C[C@@H]4C[C@H]54)nc4nc(C5CCC(F)(F)CC5)cc(C(F)F)c4c3=O)ccc(Cl)c12 (atropisomer, axis not shown; (P)) [Example 288, N-[(1S)-1-[(3P)-3-(4-chloro-3-methanesulfonamido-1-{2-[(1R,5S)-8-oxa-3-azabicyclo[3.2.1]octan-3-yl]ethyl}-1H-indazol-7-yl)-7-(4,4-difluorocyclohexyl)-5-(difluoromethyl)-4-oxo-3H,4H-pyrido[2,3-d]pyrimidin-2-yl]-2-(3,5-difluorophenyl)ethyl]-2-[(2S,4S)-9-cyclopropyl-7,8-diazatricyclo[4.3.0.0^2,^4]nona-1(6),8-dien-7-yl]acetamide]
- EC50 [1]: 0.008 nM
- CC50 at 4 days [2, 3]: > 50 nM

Structure (SMILES): CS(=O)(=O)Nc1nn(CCN2[C@@H]3CC[C@H]2COC3)c2c(-n3c([C@H](Cc4cc(F)cc(F)c4)NC(=O)Cn4nc(C5CC5)c5c4C[C@@H]4C[C@H]54)nc4nc(C5CCC(F)(F)CC5)cc(C(F)F)c4c3=O)ccc(Cl)c12 (atropisomer, axis not shown; (P)) [Example 289, N-[(1S)-1-[(3P)-3-(4-chloro-3-methanesulfonamido-1-{2-[(1R,5S)-3-oxa-8-azabicyclo[3.2.1]octan-8-yl]ethyl}-1H-indazol-7-yl)-7-(4,4-difluorocyclohexyl)-5-(difluoromethyl)-4-oxo-3H,4H-pyrido[2,3-d]pyrimidin-2-yl]-2-(3,5-difluorophenyl)ethyl]-2-[(2S,4S)-9-cyclopropyl-7,8-diazatricyclo[4.3.0.0^2,^4]nona-1(6),8-dien-7-yl]acetamide]
- EC50 [1]: 0.025 nM
- CC50 at 4 days [2]: > 50 nM

Structure (SMILES): CC1(F)CCN(CCn2nc(NS(C)(=O)=O)c3c(Cl)ccc(-n4c([C@H](Cc5cc(F)cc(F)c5)NC(=O)Cn5nc(C(F)F)c6c5C(F)(F)[C@@H]5C[C@H]65)nc5nc(C6CCC(F)(F)CC6)cc(C(F)F)c5c4=O)c32)CC1 (atropisomer, axis not shown; (P)) [Example 290, N-[(1S)-1-[(3P)-3-{4-chloro-1-[2-(4-fluoro-4-methylpiperidin-1-yl)ethyl]-3-methanesulfonamido-1H-indazol-7-yl}-7-(4,4-difluorocyclohexyl)-5-(difluoromethyl)-4-oxo-3H,4H-pyrido[2,3-d]pyrimidin-2-yl]-2-(3,5-difluorophenyl)ethyl]-2-[(2S,4R)-9-(difluoromethyl)-5,5-difluoro-7,8-diazatricyclo[4.3.0.0^2,^4]nona-1(6),8-dien-7-yl]acetamide]
- EC50 [1]: 0.023 nM
- CC50 at 4 days [2, 3]: > 50 nM

Structure (SMILES): CS(=O)(=O)Nc1nn(CCN2C[C@H](F)C[C@H](F)C2)c2c(-n3c([C@H](Cc4cc(F)cc(F)c4)NC(=O)Cn4nc(C(F)F)c5c4C(F)(F)[C@@H]4C[C@H]54)nc4nc(C5CCC(F)(F)CC5)cc(C(F)F)c4c3=O)ccc(Cl)c12 (atropisomer, axis not shown; (P)) [Example 291, N-[(1S)-1-[(3P)-3-(4-chloro-1-{2-[(3R,5S)-3,5-difluoropiperidin-1-yl]ethyl}-3-methanesulfonamido-1H-indazol-7-yl)-7-(4,4-difluorocyclohexyl)-5-(difluoromethyl)-4-oxo-3H,4H-pyrido[2,3-d]pyrimidin-2-yl]-2-(3,5-difluorophenyl)ethyl]-2-[(2S,4R)-9-(difluoromethyl)-5,5-difluoro-7,8-diazatricyclo[4.3.0.0^2,^4]nona-1(6),8-dien-7-yl]acetamide]
- EC50 [1]: 0.012 nM
- CC50 at 4 days [2, 3]: > 50 nM

Structure (SMILES): CS(=O)(=O)Nc1nn(CCN2CCCC(F)(F)C2)c2c(-n3c([C@H](Cc4cc(F)cc(F)c4)NC(=O)Cn4nc(C(F)F)c5c4C(F)(F)[C@@H]4C[C@H]54)nc4nc(C5CCC(F)(F)CC5)cc(C(F)F)c4c3=O)ccc(Cl)c12 (atropisomer, axis not shown; (P)) [Example 292, N-[(1S)-1-[(3P)-3-{4-chloro-1-[2-(3,3-difluoropiperidin-1-yl)ethyl]-3-methanesulfonamido-1H-indazol-7-yl}-7-(4,4-difluorocyclohexyl)-5-(difluoromethyl)-4-oxo-3H,4H-pyrido[2,3-d]pyrimidin-2-yl]-2-(3,5-difluorophenyl)ethyl]-2-[(2S,4R)-9-(difluoromethyl)-5,5-difluoro-7,8-diazatricyclo[4.3.0.0^2,^4]nona-1(6),8-dien-7-yl]acetamide]
- EC50 [1]: 0.016 nM
- CC50 at 4 days [2, 3]: > 50 nM

Structure (SMILES): CS(=O)(=O)Nc1nn(CCN2C[C@H]3C[C@@H]2CO3)c2c(-n3c([C@H](Cc4cc(F)cc(F)c4)NC(=O)Cn4nc(C5CC5)c5c4C[C@@H]4C[C@H]54)nc4nc(C5CCC(F)(F)CC5)cc(C(F)F)c4c3=O)ccc(Cl)c12 (atropisomer, axis not shown; (P)) [Example 298, N-[(1S)-1-[(3P)-3-(4-chloro-3-methanesulfonamido-1-{2-[(1R,4R)-2-oxa-5-azabicyclo[2.2.1]heptan-5-yl]ethyl}-1H-indazol-7-yl)-7-(4,4-difluorocyclohexyl)-5-(difluoromethyl)-4-oxo-3H,4H-pyrido[2,3-d]pyrimidin-2-yl]-2-(3,5-difluorophenyl)ethyl]-2-[(2S,4S)-9-cyclopropyl-7,8-diazatricyclo[4.3.0.0^2,^4]nona-1(6),8-dien-7-yl]acetamide]
- EC50 [1]: 0.016 nM
- CC50 at 4 days [2, 3]: > 50 nM

Structure (SMILES): CS(=O)(=O)Nc1nn(CCN2CC(F)(F)C2)c2c(-n3c([C@H](Cc4cc(F)cc(F)c4)NC(=O)Cn4nc(C(F)F)c5c4C(F)(F)[C@@H]4C[C@H]54)nc4nc(C5CCC(F)(F)CC5)cc(C(F)F)c4c3=O)ccc(Cl)c12 (atropisomer, axis not shown; (P)) [Example 307, N-[(1S)-1-[(3P)-3-{4-chloro-1-[2-(3,3-difluoroazetidin-1-yl)ethyl]-3-methanesulfonamido-1H-indazol-7-yl}-7-(4,4-difluorocyclohexyl)-5-(difluoromethyl)-4-oxo-3H,4H-pyrido[2,3-d]pyrimidin-2-yl]-2-(3,5-difluorophenyl)ethyl]-2-[(2S,4R)-9-(difluoromethyl)-5,5-difluoro-7,8-diazatricyclo[4.3.0.0^2,^4]nona-1(6),8-dien-7-yl]acetamide]
- EC50 [1]: 0.023 nM
- CC50 at 4 days [2, 3]: > 50 nM

Structure (SMILES): Cc1cc(C2CCC(F)(F)CC2)nc2nc([C@H](Cc3cc(F)cc(F)c3)NC(=O)Cn3nc(C(F)F)c4c3C(F)(F)[C@@H]3C[C@H]43)n(-c3ccc(Cl)c4c(NS(C)(=O)=O)nn(CCN5C[C@@H]6C[C@H]5CC6(F)F)c34)c(=O)c12 (atropisomer, axis not shown; (P)) [Example 310, N-[(1S)-1-[(3P)-3-(4-chloro-1-{2-[(1S,4S)-5,5-difluoro-2-azabicyclo[2.2.1]heptan-2-yl]ethyl}-3-methanesulfonamido-1H-indazol-7-yl)-7-(4,4-difluorocyclohexyl)-5-methyl-4-oxo-3H,4H-pyrido[2,3-d]pyrimidin-2-yl]-2-(3,5-difluorophenyl)ethyl]-2-[(2S,4R)-9-(difluoromethyl)-5,5-difluoro-7,8-diazatricyclo[4.3.0.0^2,^4]nona-1(6),8-dien-7-yl]acetamide]
- EC50 [1]: 0.019 nM
- CC50 at 4 days [2, 3]: > 50 nM

Structure (SMILES): Cc1cc(C2CCC(F)(F)CC2)nc2nc([C@H](Cc3cc(F)cc(F)c3)NC(=O)Cn3nc(C4CC4)c4c3C[C@@H]3C[C@H]43)n(-c3ccc(Cl)c4c(NS(C)(=O)=O)nn(CCN5C[C@@H]6C[C@H]5CC6(F)F)c34)c(=O)c12 (atropisomer, axis not shown; (P)) [Example 311, N-[(1S)-1-[(3P)-3-(4-chloro-1-{2-[(1S,4S)-5,5-difluoro-2-azabicyclo[2.2.1]heptan-2-yl]ethyl}-3-methanesulfonamido-1H-indazol-7-yl)-7-(4,4-difluorocyclohexyl)-5-methyl-4-oxo-3H,4H-pyrido[2,3-d]pyrimidin-2-yl]-2-(3,5-difluorophenyl)ethyl]-2-[(2S,4S)-9-cyclopropyl-7,8-diazatricyclo[4.3.0.0^2,^4]nona-1(6),8-dien-7-yl]acetamide]
- EC50 [1]: 0.013 nM
- CC50 at 4 days [2, 3]: > 50 nM

Structure (SMILES): CS(=O)(=O)Nc1nn(CCN2CC(C(F)F)C2)c2c(-n3c([C@H](Cc4cc(F)cc(F)c4)NC(=O)Cn4nc(C(F)F)c5c4C(F)(F)[C@@H]4C[C@H]54)nc4nc(C5CCC(F)(F)CC5)cc(C(F)F)c4c3=O)ccc(Cl)c12 (atropisomer, axis not shown; (P)) [Example 315, N-[(1S)-1-[(3P)-3-(4-chloro-1-{2-[3-(difluoromethyl)azetidin-1-yl]ethyl}-3-methanesulfonamido-1H-indazol-7-yl)-7-(4,4-difluorocyclohexyl)-5-(difluoromethyl)-4-oxo-3H,4H-pyrido[2,3-d]pyrimidin-2-yl]-2-(3,5-difluorophenyl)ethyl]-2-[(2S,4R)-9-(difluoromethyl)-5,5-difluoro-7,8-diazatricyclo[4.3.0.0^2,^4]nona-1(6),8-dien-7-yl]acetamide]
- EC50 [1]: 0.025 nM
- CC50 at 4 days [2, 3]: > 50 nM

Structure (SMILES): CS(=O)(=O)Nc1nn(CCN2CCC(F)(F)CC2)c2c(-n3c([C@H](Cc4cc(F)cc(F)c4)NC(=O)Cn4nc(C(F)F)c5c4C(F)(F)[C@@H]4C[C@H]54)nc4nc(C5CCC(F)(F)CC5)cc(C5CC5)c4c3=O)ccc(Cl)c12 (atropisomer, axis not shown; (P)) [Example 321, N-[(1S)-1-[(3P)-3-{4-chloro-1-[2-(4,4-difluoropiperidin-1-yl)ethyl]-3-methanesulfonamido-1H-indazol-7-yl}-5-cyclopropyl-7-(4,4-difluorocyclohexyl)-4-oxo-3H,4H-pyrido[2,3-d]pyrimidin-2-yl]-2-(3,5-difluorophenyl)ethyl]-2-[(2S,4R)-9-(difluoromethyl)-5,5-difluoro-7,8-diazatricyclo[4.3.0.0^2,^4]nona-1(6),8-dien-7-yl]acetamide]
- EC50 [1]: 0.02 nM
- CC50 at 4 days [2, 3]: > 50 nM
